The text below walks through data of patent US20230322753A1, “HETEROARYL DERIVATIVE, METHOD FOR PREPARATION THEREOF, AND PHARMACEUTICAL COMPOSITION COMPRISING SAME AS ACTIVE INGREDIENT” (VORONOI INC., priority 2020, published 2023).

The test system of the assay is Ba/F3 cells expressing EGFR Exon20 ins NPH. As to the kind of experiment: Ba/F3 proliferation suppression activity, cells expressing EGFR Exon20 ins NPH. It is filed as cell-based. The following applies: Mus musculus, BaF3, 72 hours, CellTiter-Glo. As for the experimental part:
A following experiment was carried out to evaluate the suppression activity of the compounds according to the present invention against the proliferation of Ba/F3 which expresses EGFR mutations.
For the Ba/F3 cells, a RPMI-1640 medium containing 10% FBS and 5 ng/ml IL-3 (R&D Systems) was used. The transduced Ba/F3 cells were cultured in a medium, which is same as the above medium, but 1 ug/ml puromycin (Invitrogen) was additionally added to.
24 hours before the treatment of the cells with the compounds, 3000 to 5000 cells were distributed into each well of a white clear bottom 96 well plate (Corning). The compounds were diluted in a dimethyl sulfoxide (e.g. dilution ratio of 3:1 and total 12 concentrations) and then injected by 0.5 ul respectively, such that a final concentration amounted to 0.3 nM to 50 uM. 72 hours after the treatment with the compounds, the measurement of live cells was made in such way that these cells were stored for 10 minutes at a room temperature using a CellTiter-Glo luminescent cell-viability reagent (Promega) and then their luminescence intensities were measured using a reader (i.e. Synergy Neo, Biotek). Each test was repeated three times.
resulting values were calculated as a cell growth ratio (%) compared to a control. Then, the graphs were drawn and the […] values were calculated by using a program, GraphPad Prism version 5.0.

Structures are written as SMILES.

`C=CC(=O)Nc1cc(Nc2cc(N3OCC[C@@H]3c3cccc(C(F)(F)F)c3F)ncn2)c(OC)cc1N1CCN(C)C(=O)C1` [Compound 85]: the GI50 (in general, the concentration that inhibits growth by half) lay within 50 to 500 nM. In the case of `C=CC(=O)Nc1cc(Nc2cc(N3OCC[C@@H]3c3cccc(C(F)(F)F)c3F)ncn2)c(OC)cc1N1C[C@@H]2C[C@H]1CO2` [Compound 92], the GI50 fell in the range of 50 to 500 nM. The same measure for `C=CC(=O)Nc1cc(Nc2cc(N3OCC[C@@H]3c3cccc(C(F)(F)F)c3F)ncn2)c(OC)cc1N1CCN(C2CC2)CC1` [Compound 81]: 50 to 500 nM. Turning to `C=CC(=O)Nc1cc(Nc2cc(N3OCC[C@@H]3c3ccc(F)c(C(F)(F)F)c3)ncn2)c(OC)cc1N1C[C@H]2C[C@@H]1CO2` [Compound 45], the GI50 was 50 to 500 nM.

`C=CC(=O)Nc1cc(Nc2cc(N3OCC[C@@H]3c3cc(F)cc(F)c3)ccn2)c(OC)cc1N1CCC(N2CCN(C3CC3)CC2)CC1` [Compound 98]: the GI50 was 50 to 500 nM. Consider `C=CC(=O)Nc1cc(Nc2cc(N3OCC[C@@H]3c3cc(F)cc(F)c3)ncn2)c(OC)cc1N1CCSCC1` [Compound 107], for which the 50% growth inhibitory concentration (GI50) lay within 50 to 500 nM. Then `C=CC(=O)Nc1cc(Nc2cc(N3OCC[C@@H]3c3ccc(F)c(C(F)(F)F)c3)ncn2)c(OC)cc1N1CCC(N2CCC2)CC1` [Compound 48], with < 50 nM. The same measure for `C=CC(=O)Nc1cc(Nc2cc(N3OCC[C@@H]3c3ccc(F)c(C(F)(F)F)c3)ncn2)c(OC)cc1N1CCN(C(C)=O)CC1` [Compound 46]: < 50 nM.

As for `C=CC(=O)Nc1cc(Nc2cc(N3OCC[C@@H]3c3cccc(C(F)(F)F)c3)ncn2)c(OC)cc1N1CCOCC1` [Compound 27], the GI50 was < 50 nM. The same measure for `C=CC(=O)Nc1cc(Nc2cc(N3OCC[C@@H]3c3cccc(C(F)(F)F)c3)ncn2)c(OC)cc1N1C[C@H]2C[C@@H]1CO2` [Compound 28]: 50 to 500 nM; for `C=CC(=O)Nc1cc(Nc2ncc(C(=O)OC(C)C)c(-c3cn(C)c4ccccc34)n2)c(OC)cc1N(C)CCN(C)C` [TAK788, reference compound]: < 50 nM; for `C=CC(=O)Nc1cc(Nc2cc(N3OCC[C@@H]3c3cccc(C(F)(F)F)c3)ncn2)c(OC)cc1N1CCN(C2CC2)[C@@H](C)C1` [Compound 10]: 50 to 500 nM.

Consider `C=CC(=O)Nc1cc(Nc2cc(N3OCC[C@@H]3c3cc(F)cc(C(F)(F)F)c3)ncn2)c(OC)cc1N1CCC(N(C)C)CC1` [Compound 15], for which the GI50 is 50 to 500 nM. Then `C=CC(=O)Nc1cc(Nc2cc(N3OCC[C@@H]3c3cccc(C(F)(F)F)c3F)ncn2)c(OC)cc1N1CC[C@@H](CN(C)C)C1` [Compound 95], with < 50 nM; and `C=CC(=O)Nc1cc(Nc2cc(N3OCC[C@@H]3c3cccc(C(F)(F)F)c3F)ncn2)c(OC)cc1N1CCC(N2CCC2)CC1` [Compound 71], with < 50 nM. Regarding `C=CC(=O)Nc1cc(Nc2cc(N3OCC[C@@H]3c3cccc(C(F)(F)F)c3F)ncn2)c(OC)cc1N1CCC(N2CCN(C)CC2)CC1` [Compound 90], the GI50 was < 50 nM.

Consider `C=CC(=O)Nc1cc(Nc2cc(N3OCC[C@@H]3c3cccc(C(F)(F)F)c3)ncn2)c(OC)cc1N1C[C@@H]2C[C@H]1CO2` [Compound 30], for which the GI50 lay within 50 to 500 nM.

Regarding `C=CC(=O)Nc1cc(Nc2cc(N3OCC[C@@H]3c3cc(F)cc(F)c3)ccn2)c(OC)cc1N1CCN(C)CC1` [Compound 100], the GI50 was 500 to 5000 nM. For `C=CC(=O)Nc1cc(Nc2cc(N3OCC[C@@H]3c3cc(F)cc(C(F)(F)F)c3)ncn2)c(OC)cc1N1CCN(C)[C@H](C)C1` [Compound 11], the GI50 was 50 to 500 nM.

In the case of `C=CC(=O)Nc1cc(Nc2cc(N3OCCC3c3cc(Cl)cc(C(F)(F)F)c3)ncn2)c(OC)cc1N1CCC(N2CCN(C3CC3)CC2)CC1` (stereo not shown) [Compound 51], the concentration for 50% growth inhibition (GI50) is 50 to 500 nM. For `C=CC(=O)Nc1cc(Nc2cc(N3OCC[C@@H]3c3cccc(C(F)(F)F)c3)ncn2)c(OC)cc1N1CCN(C2COC2)CC1` [Compound 23], the GI50 was < 50 nM. The same measure for `C=CC(=O)Nc1cc(Nc2cc(N3OCC[C@@H]3c3ccc(F)c(C(F)(F)F)c3)ncn2)c(OC)cc1N1CCC(N(CC)CC)CC1` [Compound 47]: < 50 nM; for `C=CC(=O)Nc1cc(Nc2cc(N3OCC[C@@H]3c3cccc(C(F)(F)F)c3F)ncn2)c(OC)cc1N1CC[C@@H](N(C)C)C1` [Compound 88]: 50 to 500 nM; for `C=CC(=O)Nc1cc(Nc2cc(N3OCC[C@@H]3c3ccc(F)c(C(F)(F)F)c3)ncn2)c(OC)cc1N1C[C@@H]2C[C@H]1CO2` [Compound 54]: 50 to 500 nM. The same measure for `C=CC(=O)Nc1cc(Nc2cc(N3OCC[C@@H]3c3cc(F)cc(F)c3)ncn2)c(OCC(F)(F)F)nc1N1CCN(C)CC1` [Compound 128]: 50 to 500 nM; for `C=CC(=O)Nc1cc(Nc2cc(N3OCC[C@@H]3c3cccc(C(F)(F)F)c3F)ncn2)c(OC)cc1N1CCC(N2CCN(C3CC3)[C@H](C)C2)CC1` [Compound 68]: 50 to 500 nM.

Take `C=CC(=O)Nc1cc(Nc2cc(N3OCC[C@@H]3c3cc(F)cc(C(F)(F)F)c3)ncn2)c(OC)cc1N1CCC(N2CCC2)CC1` [Compound 19]: the 50% growth inhibitory concentration (GI50) was < 50 nM.

As to `C=CC(=O)Nc1cc(Nc2cc(N3OCC[C@@H]3c3ccc(F)c(C(F)(F)F)c3)ncn2)c(OC)cc1N1CCN(C)[C@@H](C)C1` [Compound 44], the 50% growth inhibitory concentration (GI50) is < 50 nM.

`C=CC(=O)Nc1cc(Nc2cc(N3OCC[C@@H]3c3cccc(C(F)(F)F)c3)ncn2)c(OC)cc1N1CCC(N2CCC(N3CCN(C4CC4)CC3)CC2)CC1` [Compound 13]: the 50% growth inhibitory concentration (GI50) was in the range of 50 to 500 nM.

As for `C=CC(=O)Nc1cc(Nc2cc(N3OCCC3c3cccc4c3cnn4C)ncn2)c(OC)cc1N1CCC(N2CCN(C3CC3)CC2)CC1` (stereo not shown) [Compound 126], the GI50 was < 50 nM.

Regarding `C=CC(=O)Nc1cc(Nc2cc(N3OCCC3c3cccc4c3cnn4C)ncn2)c(OC)cc1N1CCN(C)CC1` (stereo not shown) [Compound 125], the GI50 fell in the range of 50 to 500 nM. With `C=CC(=O)Nc1cc(Nc2cc(N3OCC[C@@H]3c3cc(F)cc(C(F)(F)F)c3)ncn2)c(OC)cc1N1CCN(C)[C@@H](C)C1` [Compound 12], the 50% growth inhibitory concentration (GI50) was in the range of 50 to 500 nM.

Consider `C=CC(=O)Nc1cc(Nc2cc(N3OCC[C@@H]3c3ccc(Cl)c(C(F)(F)F)c3)ncn2)c(OC)cc1N1CCC(N(C)C)CC1` [Compound 35], for which the GI50 is 50 to 500 nM. As to `C=CC(=O)Nc1cc(Nc2cc(N3OCC[C@@H]3c3ccc(Cl)c(C(F)(F)F)c3)ncn2)c(OC)cc1N1CCN(CC)CC1` [Compound 33], the GI50 fell in the range of 50 to 500 nM. Turning to `C=CC(=O)Nc1cc(Nc2cc(N3OCC[C@@H]3c3cccc(C(F)(F)F)c3)ncn2)c(OC)cc1N1CCN(CC2CC2)CC1` [Compound 25], the GI50 is < 50 nM. For the molecule `C=CC(=O)Nc1cc(Nc2cc(N3OCC[C@@H]3c3cccc(C(F)(F)F)c3F)ncn2)c(OC)cc1N1CCC(N2CCN(C)C(=O)C2)CC1` [Compound 74], the GI50 fell in the range of 50 to 500 nM. Then `C=CC(=O)Nc1cc(Nc2cc(N3OCC[C@@H]3c3cc(F)cc(C(F)(F)F)c3)ncn2)c(OC)cc1N1CCN(C2CC2)[C@H](C)C1` [Compound 5], with 50 to 500 nM; and `C=CC(=O)Nc1cc(Nc2cc(N3OCC[C@@H]3c3cccc(C(F)(F)F)c3F)ncn2)c(OC)cc1N1CCC(N2C[C@@H]3C[C@H]2CO3)CC1` [Compound 96], with < 50 nM. Then `C=CC(=O)Nc1cc(Nc2cc(N3OCC[C@@H]3c3cccc(C(F)(F)F)c3F)ncn2)c(OC)cc1N1CCC(N(C)C)CC1` [Compound 82], with < 50 nM.

Turning to `C=CC(=O)Nc1cc(Nc2cc(N3OCC[C@@H]3c3cccc(C(F)(F)F)c3F)ncn2)c(OC)cc1N1C[C@H]2C[C@@H]1CO2` [Compound 86], the GI50 was 50 to 500 nM.
